We go through 11 compounds from patent US20260345654A1, “2,8-DIHYDROXYQUINOLINE GLUCURONIDE DERIVATIVES WITH ENHANCED PROPERTIES FOR USE AS ANTICANCER, ANTIVIRAL, ANTIMICROBIAL, AND OTHER THERAPEUTIC APPLICATIONS” (priority 2023, published 2026).

The nature of data set [1]: Solubility. The settings on record: for solubility of copper complex: aqueous solutions.
For data set [2], the system named is PANC-1 cells. Description: In vitro anti-proliferation (CellTiter-Glo, 72 hr), PANC-1. The format is cell-based. The settings on record: Homo sapiens, PANC-1, 72 h, 72 hr. As to the method:
(§1) Commercially available 8HQ and freshly synthesized G2-8HQ were prepared for in vitro anti-proliferative studies against the following cell lines with and without the presence of 10 μM Cu(+2): (1) A549: […]; (2) BT-549: epithelial cells from ductal tumor; (3) DU-145: human prostate cancer; (4) PANC-1: pancreatic cancer; (5) SU.86.86: a new adoptive pancreatic cell for immunotherapy studies; (6) RL: non-Hodgkin's lymphoma; (7) LnCAP, Prostate cancer cell line; (8) A431, a squamous cell carcinoma line; and (9) UACC-62 a malignant melanoma cell line.
(§2) With regard to the study protocol used, the objective was to conduct a study of the cytotoxicity of W1469 against several cancer cell lines. In the study protocol, preparations for the A549 (Lung) cell line screen are given as an example. The following materials were used: (1) FBS (2) RPMI-1640 medium supplemented with 10% FBS:’ and (3) A549 Cells. The four samples tested are referred to as Items 1-4 below and were placed at 4 °C upon arrival. These four samples were as follows: • Item 1: Tube A (W1469) (500 uM when FBS added) • Item 2: Tube B (W1469g) (1000 uM when FBS added) • Item 3: Tube C (W1469) • Item 4: Tube D (W1469g)
(§3) Add 50 μL of above 2× stocks to appropriate wells to expose appropriate cells to the final dilutions of samples. Add 50 μL media to media and cell control wells and 50 μL media mix to vehicle control wells. Cells are exposed for 72 hr. Following a 72 hr exposure to Sample, perform a CTG assay on all remaining plates.
(§4) At the end of the 72 hr exposure period, remove plates for CellTiter-Glo assay from 37 °C, 5% CO2 incubator and place on the bench at room temperature for 30 mins. Add 100 μL CellTiter-Glo reagent, mix for 2 mins, followed by a further 10 min incubation at room temperature. Record luminescence. Tables showing the resulting plate layouts are included below/
For orientation: Cellular ATP, detected with luciferase, serves as a proxy for viable cell number.

Data set [3] concerns A549 cells. Put plainly: In vitro anti-proliferation (CellTiter-Glo, 72 hr), A549. The class given is cell-based, human. The settings on record: Homo sapiens, A549, 72 h, 72 hr. As to the method: as §1, §2
Items 1 and 2 are sterile ready for the addition of 1 ml of sterile FBS. Final concentrations after addition of 1 ml: 500 μM for Tube A and 1000 μM for Tube B. Items 3 and 4 are described further below. In the protocol, media containing 10% FBS and 20 μM CuCl2 are used in Tubes C and D only. A and B are serially diluted in media with 10% FBS and no added copper.
The protocol method proceeds as follows:
Seed 2, 96-well plates of A549 cells with 5,000 cells per well in a total volume of 50 μL per well. Leave overnight. See plate layout below for which wells to seed with 100 μL of media for media control. The following day, cells are exposed to compounds as described below.
For Items 1 & 2, to make the 500 μM and 1000 μM Stocks of samples 1 and 2 (W1469 and W1469g): Add 1 ml of sterile FBS to each Tube A and Tube B, swirl to mix.
To make appropriate 2× final dilutions of sample 1, Tube A (W1469), the following amounts are used: • 500 μM: 10 mL as supplied • 100 μM: 2 mL 500 μM Sample+8 mL media • 30 μM: 3 mL 100 μM Sample+7 mL media • 10 μM: 3 mL 30 μM Sample+6 mL media • 3 μM: 3 mL 10 μM Sample+7 mL media • 1 μM: 3 mL 3 μM Sample+6 mL media • 0.3 μM: 3 mL 1 μM Sample+7 mL media • 0.1 μM: 3 mL 0.3 μM Sample+6 mL media
To make appropriate 2× final dilutions of sample 2, Tube B (W1469g), the following amounts are used: • 1000 μM: 10 mL as supplied • 300 μM: 3 mL 1000 μM Sample+7 mL media • 100 μM: 3 mL 300 μM Sample+6 mL media • 30 μM: 3 mL 100 μM Sample+7 mL media • 10 μM: 3 mL 30 μM Sample+6 mL media • 3 μM: 3 mL 10 μM Sample+7 mL media • 1 μM: 3 mL 3 μM Sample+6 mL media • 0.3 μM: 3 mL 1 μM Sample+7 mL media
For Items 3 & 4, the following protocol was used to make 1000 uM Stocks of samples 3 and 4 (W1469 and W1469g): • 1: Dissolve 3.37 mg W1469 and excipient (Tube C) in 1 ml RPMI medium without added FBS and copper and swirl briefly until completely dissolved. Add 9 ml of RPMI media containing 10% FBS and 20 uM copper. Swirl to mix. Sterile filter the 10 ml with provided syringes and filters. This is now the 1000 μM stock solution W1469 ready for screening • 2: Dissolve 3.2 mg W1469g and excipient (Tube D) in 1 ml RPMI medium without added FBS and copper and swirl briefly until completely dissolved. […] This is now the 1000 μM stock solution W1469g ready for screening. […]

The test system of data set [4] is RIF tumor. The settings on record: cited from earlier work.
In data set [5] the test system is BT-549 cells. Put plainly: In vitro anti-proliferation (CellTiter-Glo, 72 hr), BT-549. The class given is cell-based. The conditions noted are these: Homo sapiens, BT-549, 72 h, 72 hr, read-out: IC50. The protocol: as §1, §2, §3, §4
The test system of data set [6] is DU-145 cells. Description: In vitro anti-proliferation (CellTiter-Glo, 72 hr), DU-145. The format is cell-based, human. The conditions noted are these: Homo sapiens, DU-145, 72 h, 72 hr, read-out: IC50. As to the method: as §1, §2, §3, §4
Data set [7] relates to A2780, A549 and MDA-MB-231 cells. The settings on record: cited from earlier work; for improvement with the addition of copper: with vs without copper.
In data set [8] the test system is RL cells. Description: In vitro anti-proliferation (CellTiter-Glo, 72 hr), RL. The class given is cell-based. The conditions noted are these: for IC50: 72 hr, read-out: IC50. As to the method:
as §1, §2, §3, §4

Data set [9] relates to SU.86.86 cells. Put plainly: In vitro anti-proliferation (CellTiter-Glo, 72 hr), SU.86.86. The format is cell-based. The conditions noted are these: Homo sapiens, SU.86.86, 72 h, 72 hr, read-out: IC50. The protocol: as §1, §2, §3, §4
The conditions of data set [10]: topical treatment of skin cancer; cited from earlier work.
A short description of data set [11]: Chemical stability. The format is physicochemical.
The conditions of data set [12]: comparison Table 5; prior art compound; cited from earlier work.
Data set [13] in a line: In vitro anti-proliferation of commercial G8HQ. The format is cell-based. As to the method: The present inventors obtained a commercial sample of G8HQ and tested it in vitro under conditions with copper added and found a possible reading of >500 uM IC 50, indicating no anti-proliferative activity, but such examination was cursory and not conclusive. Of further relevance, Oliveri 2012 designed an O-linked glucose adducts to the 8-hydroxy position of both 8HQ and CQ (FIG. 17). The resulting pro-drug form as expected abrogated the copper binding and eliminated the anti-cancer activity. […] The authors reasoned that the glucose adduct would improve solubility, and the glucose receptors over-populated on the surface of cancer cells. The anaerobic metabolism and high dependence on glucose that characterizes most cancers is a phenomenon known as the “Warburg Effect”.

The conditions of data set [14]: comparison Table 5; prior art compound; cited from earlier work. The source holds these as a separate data set.
The subject of data set [15] is cancer cell lines. The settings on record: comparison Table 5; prior art compound; cited from earlier work.
The mark [16] stands for this setting: +Cu (10 μM), G2-8HQ values based on MW of apo form (337).

“Also recorded” adds a separate entry of the source. Read-outs that look alike come from different tables or passages of the source.

Regarding `Oc1ccc2cccc(O)c2n1` [2-8HQ, 2,8-quinolinediol], in [1] (water / aqueous), the solubility entry is “poor aqueous solubility; also recorded: insoluble in aqueous systems”.

Consider `Oc1cccc2cccnc12.[Cu+2]` [8HQ copper complex, reference compound], for which the “solubility of copper complex” value in [1] is given as “aqueous insoluble”.

For the compound `Oc1cccc2cccnc12` [8HQ, 8-hydroxyquinoline, reference compound], the IC50 (usually the concentration that inhibits the measured activity by half) in data set [2] (setting [16]) came out at 11.2 µM; in data set [2] (−Cu), 9.3 µM; in data set [3] (setting [16]), 29 µM; in data set [3] (−Cu), 12.7 µM; in [5] (setting [16]), 24.5 µM; in data set [5] (−Cu) it was 9.9 µM. Further, the half-maximal inhibitory concentration (IC50) came to 11.6 µM in data set [6] (setting [16]); 11.6 µM in data set [6] (−Cu); 0.07 µM in data set [8] (setting [16]); 0.06 µM in data set [8] (Homo sapiens, RL, 72 h, +Cu (10 μM), G2-8HQ values based on MW of apo form (337)); 0.62 µM in data set [8] (Homo sapiens, RL, 72 h, −Cu); 46 µM in data set [9] (setting [16]). Besides, in [9] (−Cu), the IC50 was above 50 µM. In data set [4] (all tissues, 2.0 to 24 hr after glucuronide injection, n = 3), the “tissue levels of 8-OHQ” value is “These data points, with n = 3 animals, also failed to show significant tissue levels of 8-OHQ”. For the same compound, the “cytotoxicity change with addition of Cu^+2” value in data set [7] (addition of Cu^+2 to the media) was “significantly increased the cytotoxicity”. In data set [7] (unmodified 8HQ vs CQ), the “activity relative to CQ” value is reported as 9 to 27 ×. For the same compound, the “increase of activity/cytotoxicity in presence of copper” value in data set [8] (RL, +Cu^+2 (10 or 20 μM) vs −Cu) is 9 fold. The solubility result is listed as “soluble” in data set [1] (DMSO) and “sparingly soluble” in data set [1] (water / aqueous).

As to `NCC(=O)CCC(=O)O` [Aminolaevulinic acid (Levulan), Aminolaevulinic acid], the “Side Effects” value in [10] was “Burning, Itching or Tingling, Rash or redness; also recorded: Light sensitivity (bright lights/sunshine)”.

Regarding `O=c1[nH]cc(F)c(=O)[nH]1` [Fluorouracil], the “Side Effects” value in data set [10] is “tender skin, serious allergic reaction”.

`O=C(O)[C@H]1O[C@@H](Oc2ccc3cccc(O)c3n2)[C@H](O)[C@@H](O)[C@@H]1O.[Cu+2]` [G2-8HQ copper complex]: the “stability of copper complex” value in [11] (in excipient, 24 hours) was “precipitation after 24 hours”; in data set [11] (pH values less than 8) it was “rapid precipitated insoluble 2-8HQ copper complex”. Further, the “solubility of copper complex” value in [1] was “highly soluble in aqueous solutions”.

`O=C(O)[C@H]1O[C@@H](Oc2cccc3cccnc23)[C@H](O)[C@@H](O)[C@@H]1O` [G8HQ, 8-quinolinyl beta-D-glucopyranosiduronic acid]: the “Solubility of Cu Complex/aqueous” value in data set [12] is “None”. The activity result in [13] (in vitro, without acidification) is recorded as “no activity”. This compound yielded an IC50 in data set [13] (with copper added, cursory and not conclusive) above 500 µM. Also, the tumor uptake result in [4] (after acidification of tumors by hyperglycemia, mice) is “rapid and significantly increased”. In [4] (after tumor acidification, mice), the retention entry is “prolonged retention in tumor and the colon over all other tissues”. Also, the “tumor or general tissue partitioning” value in [4] (initial animal experiments, no acidification, mice) is “no significant tumor or general tissue partitioning”. Moreover, the “metabolic clearance / elimination time” value in [4] (mice, post injection, listed as 8GHQ) is 3 h. For the same compound, the Complexes w/copper result in [14] is recorded as “No”. For the same compound, the “Active w/o Cu (cancer)” value in data set [15] is reported as “No”.

As for `O=C(O)[C@H]1O[C@@H](Oc2cccc3cccnc23)[C@H](O)[C@@H](O)[C@@H]1O` [GA8HQ], the “Solubility of Cu Complex/aqueous” value in data set [12] is given as “None, (8HQ poor)”. The Complexes w/copper result in data set [14] is listed as “No”. In addition, the “Active w/o Cu (cancer)” value in [15] is on record as “No”.

As to `OC[C@H]1O[C@@H](Oc2cccc3cccnc23)[C@H](O)[C@@H](O)[C@@H]1O` [Glu8HQ, 8-quinolinyl beta-D-glucopyranoside], in data set [7] (20 μM Cu^+2), the “activity relative to Glu8CQ” value is on record as 10 × and the “enhancement of IC50 by copper” value was 18 ×. The “activity vs CQ analog” value in [7] (glucose derivatives, FIG. 18) is given as “greater activity than the CQ analog (GluCQ)”. Moreover, the “improvement with the addition of copper” value in data set [7] is 10-20 fold.

Consider `OC[C@H]1O[C@@H](Oc2c(I)cc(Cl)c3cccnc23)[C@H](O)[C@@H](O)[C@@H]1O` [GluCQ, 5-chloro-7-iodo-8-quinolinyl-β-D-glucopyranoside], for which the “enhancement of IC50 by copper” value in data set [7] (20 μM Cu^+2) is listed as 9 ×. In addition, the “improvement with the addition of copper” value in [7] is given as “about 2 fold”.

For `CC(C)Cn1cnc2c(N)nc3ccccc3c21` [Zyclara, Alara (Imiquimod), Imiquimod], the “Side Effects” value in data set [10] is reported as “headache or backpain, Diarrhea; also recorded: Redness, bleeding or flaking skin, swelling,; also recorded: blistering, sting or pain. Fatigue or tiredness,”.
